Experiments:
Test in all cases: Herbicidal effect test by soil treatment
Type in all cases: in vivo
soybean (Glysine max) = details: crop plant, three weeks after spraying
Excerpt: (§1) In a plastic box of 15 cm length, 22 cm width and 6 cm depth, there was placed a sterilized dilvial soil, and seeds of barnyardgrass (Echinochloa crusgalli), large crabgrass (Digitaria adscendens), annual sedge (Cyperus microiria), black nightshade (Solanum nigrum L.), hairly galinosoga (Galinsoga ciliat), rorippa ssp. (Rorippa atrovirens), rice (Oryza sativa), corn (Zea mays), wheat (Triticum aestivum), soybean (Glysine max) and cotton (Gossypium herbaceum) were sown mixedly. After covering soil to about 1 cm over the seeds, herbicides were sprayed evenly on the soil surface to predetermined proportions of the active ingredient In spraying, the wettable powder, emulsifiable concentrate, dry flowable or flowable in the above formulation examples were diluted with water and sprayed over the entire surface by means of a small sprayer. Three weeks after spraying, the herbicidal effect on crop plants including rice, corn, wheat, soybean, cotton and various kinds of weeds were examined according to the judgement criteria shown below. Judgement criteria
(§2) The above growth control rates are determined by measuring the top fresh weights of the treated plants and those of the non-treated plants, and culculated from the following formula: [formula]

[1] = tested on: black nightshade (Solanum nigrum L.); details: three weeks after spraying
Excerpt: as §1, §2

[2] = tested on: large crabgrass (Digitaria adscendens); details: three weeks after spraying
Excerpt: as §1, §2

[3] = tested on: annual sedge (Cyperus microiria); details: three weeks after spraying
Excerpt: as §1, §2

[4] = tested on: hairly galinosoga (Galinsoga ciliat); details: three weeks after spraying
Excerpt: as §1, §2

[5] = tested on: cotton (Gossypium herbaceum); details: crop plant, three weeks after spraying
Excerpt: as §1, §2

[6] = tested on: rorippa ssp. (Rorippa atrovirens); details: three weeks after spraying
Excerpt: as §1, §2

rice (Oryza sativa) = details: crop plant, three weeks after spraying
Excerpt: as §1, §2

corn (Zea mays) = details: crop plant, three weeks after spraying
Excerpt: as §1, §2

[7] = tested on: barnyardgrass (Echinochloa crusgalli); details: application amount 1.6 g/a, three weeks after spraying
Excerpt: as §1, §2

[8] = tested on: wheat (Triticum aestivum); details: crop plant, three weeks after spraying
Excerpt: as §1, §2

Compound	herbicidal effect, S (Glysine max) (soybean (Glysine max); application amount 1.6 g/a)	herbicidal effect, H (Solanum nigrum L.) ([1]; application amount 1.6 g/a)	herbicidal effect, M (Digitaria adscendens) ([2]; application amount 1.6 g/a)	herbicidal effect, K (Cyperus microiria) ([3]; application amount 1.6 g/a)	herbicidal effect, D (Galinsoga ciliat) ([4]; application amount 1.6 g/a)	herbicidal effect, C (Gossypium herbaceum) ([5]; application amount 1.6 g/a)	herbicidal effect, I (Rorippa indica) ([6]; application amount 1.6 g/a)	herbicidal effect, R (Oryza sativa) (rice (Oryza sativa); application amount 1.6 g/a)	herbicidal effect, T (Zea mays) (corn (Zea mays); application amount 1.6 g/a)	herbicidal effect, N (Echinochloa crusgalli) [7]	herbicidal effect, W (Triticum vulgare) ([8]; application amount 1.6 g/a)	further results
O=C1COc2cc(F)c(N3C(=O)CC(C(F)(F)F)CC3=O)cc2N1 [1-25]	0 (Growth control rates of less than 5% (substantially no effect))	5 (Growth control,rates of more than 90% (almost completely withered))	5 (Growth control,rates of more than 90% (almost completely withered))	5 (Growth control,rates of more than 90% (almost completely withered))	5 (Growth control,rates of more than 90% (almost completely withered))	1 (Growth control rates of 5 to 20%)	5 (Growth control,rates of more than 90% (almost completely withered))	1 (Growth control rates of 5 to 20%)	0 (Growth control rates of less than 5% (substantially no effect))	5 (Growth control,rates of more than 90% (almost completely withered))	0 (Growth control rates of less than 5% (substantially no effect))	
CC1CC(=O)N(c2cc3c(cc2F)OCC(=O)N3)C(=O)C1 [1-22]	0 (Growth control rates of less than 5% (substantially no effect))	5 (Growth control,rates of more than 90% (almost completely withered))	5 (Growth control,rates of more than 90% (almost completely withered))	5 (Growth control,rates of more than 90% (almost completely withered))	5 (Growth control,rates of more than 90% (almost completely withered))	0 (Growth control rates of less than 5% (substantially no effect))	5 (Growth control,rates of more than 90% (almost completely withered))	0 (Growth control rates of less than 5% (substantially no effect))	0 (Growth control rates of less than 5% (substantially no effect))	5 (Growth control,rates of more than 90% (almost completely withered))	0 (Growth control rates of less than 5% (substantially no effect))	
C#CCN1C(=O)COc2ccc(N3C(=O)CC(C(F)(F)F)CC3=O)cc21 [1-24]	1 (Growth control rates of 5 to 20%)	5 (Growth control,rates of more than 90% (almost completely withered))	5 (Growth control,rates of more than 90% (almost completely withered))	5 (Growth control,rates of more than 90% (almost completely withered))	5 (Growth control,rates of more than 90% (almost completely withered))	3 (Growth control rates of 40 to 70%)	5 (Growth control,rates of more than 90% (almost completely withered))	5 (Growth control,rates of more than 90% (almost completely withered))	4 (Growth control rates of 70 to 90%)		4 (Growth control rates of 70 to 90%)	herbicidal effect, S (Glysine max) (soybean (Glysine max); application amount 0.4 g/a): 0 (Growth control rates of less than 5% (substantially no effect)); herbicidal effect, S (Glysine max) (soybean (Glysine max); application amount 0.8 g/a): 0 (Growth control rates of less than 5% (substantially no effect)); herbicidal effect, H (Solanum nigrum L.) ([1]; application amount 0.4 g/a): 5 (Growth control,rates of more than 90% (almost completely withered)); herbicidal effect, H (Solanum nigrum L.) ([1]; application amount 0.8 g/a): 5 (Growth control,rates of more than 90% (almost completely withered)); herbicidal effect, M (Digitaria adscendens) ([2]; application amount 0.4 g/a): 5 (Growth control,rates of more than 90% (almost completely withered)); herbicidal effect, M (Digitaria adscendens) ([2]; application amount 0.8 g/a): 5 (Growth control,rates of more than 90% (almost completely withered)); herbicidal effect, K (Cyperus microiria) ([3]; application amount 0.4 g/a): 5 (Growth control,rates of more than 90% (almost completely withered)); herbicidal effect, K (Cyperus microiria) ([3]; application amount 0.8 g/a): 5 (Growth control,rates of more than 90% (almost completely withered)); herbicidal effect, D (Galinsoga ciliat) ([4]; application amount 0.4 g/a): 5 (Growth control,rates of more than 90% (almost completely withered)); herbicidal effect, D (Galinsoga ciliat) ([4]; application amount 0.8 g/a): 5 (Growth control,rates of more than 90% (almost completely withered)); herbicidal effect, C (Gossypium herbaceum) ([5]; application amount 0.4 g/a): 0 (Growth control rates of less than 5% (substantially no effect)); herbicidal effect, C (Gossypium herbaceum) ([5]; application amount 0.8 g/a): 1 (Growth control rates of 5 to 20%); herbicidal effect, I (Rorippa indica) ([6]; application amount 0.4 g/a): 5 (Growth control,rates of more than 90% (almost completely withered)); herbicidal effect, I (Rorippa indica) ([6]; application amount 0.8 g/a): 5 (Growth control,rates of more than 90% (almost completely withered)); herbicidal effect, R (Oryza sativa) (rice (Oryza sativa); application amount 0.4 g/a): 1 (Growth control rates of 5 to 20%); herbicidal effect, R (Oryza sativa) (rice (Oryza sativa); application amount 0.8 g/a): 4 (Growth control rates of 70 to 90%); herbicidal effect, T (Zea mays) (corn (Zea mays); application amount 0.4 g/a): 0 (Growth control rates of less than 5% (substantially no effect)); herbicidal effect, T (Zea mays) (corn (Zea mays); application amount 0.8 g/a): 2 (Growth control rates of 20 to 40%); herbicidal effect, W (Triticum vulgare) ([8]; application amount 0.4 g/a): 0 (Growth control rates of less than 5% (substantially no effect)); herbicidal effect, W (Triticum vulgare) ([8]; application amount 0.8 g/a): 1 (Growth control rates of 5 to 20%)
CCOC(=O)c1cc(N2C(=O)CC(c3ccccc3)CC2=O)c(F)cc1Cl [1-29]	0 (Growth control rates of less than 5% (substantially no effect))	5 (Growth control,rates of more than 90% (almost completely withered))		5 (Growth control,rates of more than 90% (almost completely withered))	5 (Growth control,rates of more than 90% (almost completely withered))	0 (Growth control rates of less than 5% (substantially no effect))	5 (Growth control,rates of more than 90% (almost completely withered))	0 (Growth control rates of less than 5% (substantially no effect))	0 (Growth control rates of less than 5% (substantially no effect))		0 (Growth control rates of less than 5% (substantially no effect))	herbicidal effect, S (Glysine max) (soybean (Glysine max); application amount 3.2 g/a): 0 (Growth control rates of less than 5% (substantially no effect)); herbicidal effect, S (Glysine max) (soybean (Glysine max); application amount 6.3 g/a): 0 (Growth control rates of less than 5% (substantially no effect)); herbicidal effect, H (Solanum nigrum L.) ([1]; application amount 3.2 g/a): 5 (Growth control,rates of more than 90% (almost completely withered)); herbicidal effect, H (Solanum nigrum L.) ([1]; application amount 6.3 g/a): 5 (Growth control,rates of more than 90% (almost completely withered)); herbicidal effect, K (Cyperus microiria) ([3]; application amount 3.2 g/a): 5 (Growth control,rates of more than 90% (almost completely withered)); herbicidal effect, K (Cyperus microiria) ([3]; application amount 6.3 g/a): 5 (Growth control,rates of more than 90% (almost completely withered)); herbicidal effect, D (Galinsoga ciliat) ([4]; application amount 3.2 g/a): 5 (Growth control,rates of more than 90% (almost completely withered)); herbicidal effect, D (Galinsoga ciliat) ([4]; application amount 6.3 g/a): 5 (Growth control,rates of more than 90% (almost completely withered)); herbicidal effect, C (Gossypium herbaceum) ([5]; application amount 3.2 g/a): 0 (Growth control rates of less than 5% (substantially no effect)); herbicidal effect, C (Gossypium herbaceum) ([5]; application amount 6.3 g/a): 0 (Growth control rates of less than 5% (substantially no effect)); herbicidal effect, I (Rorippa indica) ([6]; application amount 3.2 g/a): 5 (Growth control,rates of more than 90% (almost completely withered)); herbicidal effect, I (Rorippa indica) ([6]; application amount 6.3 g/a): 5 (Growth control,rates of more than 90% (almost completely withered)); herbicidal effect, R (Oryza sativa) (rice (Oryza sativa); application amount 3.2 g/a): 0 (Growth control rates of less than 5% (substantially no effect)); herbicidal effect, R (Oryza sativa) (rice (Oryza sativa); application amount 6.3 g/a): 0 (Growth control rates of less than 5% (substantially no effect)); herbicidal effect, T (Zea mays) (corn (Zea mays); application amount 3.2 g/a): 0 (Growth control rates of less than 5% (substantially no effect)); herbicidal effect, T (Zea mays) (corn (Zea mays); application amount 6.3 g/a): 0 (Growth control rates of less than 5% (substantially no effect)); herbicidal effect, W (Triticum vulgare) ([8]; application amount 3.2 g/a): 0 (Growth control rates of less than 5% (substantially no effect)); herbicidal effect, W (Triticum vulgare) ([8]; application amount 6.3 g/a): 0 (Growth control rates of less than 5% (substantially no effect))
